The target in the first assay is T1, human M2 receptor (Homo sapiens, UniProt P08172).
T1 sequence (P08172 1-466): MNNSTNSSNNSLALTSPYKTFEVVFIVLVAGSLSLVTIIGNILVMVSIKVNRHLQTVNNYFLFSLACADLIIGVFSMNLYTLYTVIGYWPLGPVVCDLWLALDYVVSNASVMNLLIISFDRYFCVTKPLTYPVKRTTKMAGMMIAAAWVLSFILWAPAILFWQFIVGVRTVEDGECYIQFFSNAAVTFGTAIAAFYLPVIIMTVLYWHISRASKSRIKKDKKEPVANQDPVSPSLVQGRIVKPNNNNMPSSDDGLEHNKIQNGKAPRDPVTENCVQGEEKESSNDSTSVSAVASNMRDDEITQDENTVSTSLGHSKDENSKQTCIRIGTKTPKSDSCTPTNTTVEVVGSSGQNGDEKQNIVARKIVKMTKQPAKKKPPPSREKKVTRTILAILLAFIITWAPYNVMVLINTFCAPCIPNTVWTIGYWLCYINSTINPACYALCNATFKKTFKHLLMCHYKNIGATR
Particulars: Receptor activity EC50, M2-GIRK1/4 activation test, acetylcholine at EC20; allosteric potency; in some cases mean values from two or more determinations.
Broadly, the EC50 is the concentration that produces a half-maximal response. A lower EC50 goes with greater potency. In the case of `CN(CCF)c1ccc2c(=O)c(C(=O)NC3(C(F)(F)F)CC3)cn(-c3ccc(F)cc3F)c2n1` [Example 109, 1-(2,4-Difluorophenyl)-7-[(2-fluoroethyl)(methyl)amino]-4-oxo-N-[1-(trifluoromethyl)cyclopropyl]-1,4-dihydro-1,8-naphthyridine-3-carboxamide], the EC50 was determined as 187 nM.
Still for that read-out and setting: the value for `O=C(NC(c1c(F)cccc1F)C(F)(F)F)c1cn(-c2ccc(F)cc2F)c2nc(N3CCC(O)CC3=O)ccc2c1=O` (single isomer, unassigned) [Example 254, 1-(2,4-Difluorophenyl)-N-[1-(2,6-difluorophenyl)-2,2,2-trifluoroethyl]-7-[4-hydroxy-2-oxopiperidin-1-yl]-4-oxo-1,4-dihydro-1,8-naphthyridine-3-carboxamide] was 337 nM.
With `CN(C)c1ccc2c(=O)c(C(=O)NC34CCC(CC3)CC4)cn(-c3ccc(F)cc3Cl)c2n1` [Example 152, N-(Bicyclo[2.2.2]oct-1-yl)-1-(2-chloro-4-fluorophenyl)-7-(dimethylamino)-4-oxo-1,4-dihydro-1,8-naphthyridine-3-carboxamide], a half-maximal effect (EC50) was put at 10 nM.
`CC(C)(NC(=O)c1cn(-c2ccc(F)cc2F)c2nc(N3CCNC3=O)ccc2c1=O)c1c(F)cccc1F` [Example 184, 1-(2,4-Difluorophenyl)-N-[2-(2,6-difluorophenyl)propan-2-yl]-4-oxo-7-(2-oxoimidazolidin-1-yl)-1,4-dihydro-1,8-naphthyridine-3-carboxamide] gave an EC50 of 129 nM.
The same measure, in the same setting: next, `CC(C)(CC(F)(F)F)NC(=O)c1cn(-c2c(F)cc(F)cc2F)c2nc(N3CCCN(CCO)C3=O)ccc2c1=O` [Example 383, 7-[3-(2-Hydroxyethyl)-2-oxotetrahydropyrimidin-1(2H)-yl]-4-oxo-N-(4,4,4-trifluoro-2-methylbutan-2-yl)-1-(2,4,6-trifluorophenyl)-1,4-dihydro-1,8-naphthyridine-3-carboxamide]: 18 nM.
Still for that read-out and setting: the value for `O=C(NC12CC3CC(CC(C3)C1)C2)c1cn(-c2ccc(F)cc2F)c2nc(N3CC(F)(F)CCC3=O)ccc2c1=O` [Example 171] was 30 nM; that for `CC[C@@H](NC(=O)c1cn(-c2ccc(F)cc2F)c2nc(NCC(F)(F)F)ccc2c1=O)C(F)(F)F` [Example 94, 1-(2,4-Difluorophenyl)-4-oxo-N-[(2R)-1,1,1-trifluorobutan-2-yl]-7-[(2,2,2-trifluoroethyl)amino]-1,4-dihydro-1,8-naphthyridine-3-carboxamide] was 164 nM.

Still in this assay, the particulars now being: Receptor activity EC50, allosteric potency at EC20 acetylcholine; M2-GIRK1/4 reporter cells; in some cases mean of two or more determinations.
In the case of `COC(=O)N1CCN(c2ccc3c(=O)c(C(=O)NC(C)(C)CC(F)(F)F)cn(-c4c(F)cc(F)cc4F)c3n2)CC1` [Example 575, Methyl 4-{5-oxo-6-[(4,4,4-trifluoro-2-methylbutan-2-yl)carbamoyl]-8-(2,4,6-trifluorophenyl)-5,8-dihydro-1,8-naphthyridin-2-yl}piperazine-1-carboxylate], the half-maximal effective concentration (EC50) was found to be 13 nM.
The compound `COC1(C)CN(c2ccc3c(=O)c(C(=O)N[C@H](C4CC4)C(F)(F)F)cn(-c4c(F)cc(F)cc4F)c3n2)C1` [Example 605, N-[(1R)-1-Cyclopropyl-2,2,2-trifluoroethyl]-7-(3-methoxy-3-methylazetidin-1-yl)-4-oxo-1-(2,4,6-trifluorophenyl)-1,4-dihydro-1,8-naphthyridine-3-carboxamide] returned an EC50 of 25 nM. Against the preceding compound, the EC50 is about 1.9-fold higher.

Still in this assay, the particulars now being: read-out: Efficiency.
As for `CCC(NC(=O)c1cn(-c2c(F)cc(F)cc2F)c2nc(N3C[C@@H](O)[C@H](O)C3)ccc2c1=O)C(F)(F)C(F)(F)F` (mixture of isomers) [Example 522, 7-[(3R,4R)-3,4-Dihydroxypyrrolidin-1-yl]-4-oxo-N-[1,1,1,2,2-pentauoropentan-3-yl]-1-(2,4,6-trifluorophenyl)-1,4-dihydro-1,8-naphthyridine-3-carboxamide], the Emax was found to be 92.8%.

Staying with this assay, now noted: read-out: Efficiency, boosting of the acetylcholine effect at EC20 acetylcholine concentration; M2-GIRK1/4 reporter cells.
On to `COC(=O)N1CCN(c2ccc3c(=O)c(C(=O)NC(C)(C)CC(F)(F)F)cn(-c4c(F)cc(F)cc4F)c3n2)CC1` [Example 575, Methyl 4-{5-oxo-6-[(4,4,4-trifluoro-2-methylbutan-2-yl)carbamoyl]-8-(2,4,6-trifluorophenyl)-5,8-dihydro-1,8-naphthyridin-2-yl}piperazine-1-carboxylate], for which the Emax amounted to 96%.
In the case of `COC1(C)CN(c2ccc3c(=O)c(C(=O)N[C@H](C4CC4)C(F)(F)F)cn(-c4c(F)cc(F)cc4F)c3n2)C1` [Example 605, N-[(1R)-1-Cyclopropyl-2,2,2-trifluoroethyl]-7-(3-methoxy-3-methylazetidin-1-yl)-4-oxo-1-(2,4,6-trifluorophenyl)-1,4-dihydro-1,8-naphthyridine-3-carboxamide], the Emax stood at 98%.

The record behind these values is US20190367516A1 (Bayer Pharma Aktiengesellschaft, priority 2015, published 2019).
